Measured values taken from PubChem BioAssay AID248 (DTP/NCI, 2004).
Several values for one entry are separate records, joined by “and”; a condition that tells them apart may be missing. Identical values can stand only once. Inconclusive results and toxic doses are left out.

Tested on: L1210 leukemia ip in BDF1 mice, survival T/C
Assay: NCI In Vivo Anticancer Drug Screen. Data for tumor model L1210 Leukemia (intraperitoneal) in B6D2F1 (BDF1) mice
Settings: endpoint: mean survival time, higher = longer survival
Procedure, shortened: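 In this screen, tumor-bearing mice given compound are compared to those given vehicle, and their survival values are reported as a treated-to-control quotient.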

[1] = dose: 50.0 mg/kg/injection, schedule: Q01DX001 (ip), vehicle: saline
[2] = dose: 100.0 mg/kg/injection, schedule: Q01DX001 (ip), vehicle: saline
[3] = dose: 200.0 mg/kg/injection, schedule: Q01DX001 (ip), vehicle: saline
[4] = dose: 100.0 mg/kg/injection, schedule: Q04DX003 (ip), vehicle: saline with Tween-80
[5] = dose: 200.0 mg/kg/injection, schedule: Q04DX003 (ip), vehicle: saline with Tween-80
[6] = dose: 400.0 mg/kg/injection, schedule: Q04DX003 (ip), vehicle: saline with Tween-80
[7] = dose: 100.0 mg/kg/injection, schedule: Q01DX001 (ip), vehicle: saline with Tween-80
[8] = dose: 100.0 mg/kg/injection, schedule: Q01DX009 (ip), vehicle: saline with Tween-80
[9] = dose: 200.0 mg/kg/injection, schedule: Q01DX001 (ip), vehicle: saline with Tween-80
[10] = dose: 200.0 mg/kg/injection, schedule: Q01DX009 (ip), vehicle: saline with Tween-80
[11] = dose: 400.0 mg/kg/injection, schedule: Q01DX009 (ip), vehicle: saline with Tween-80
[12] = dose: 100.0 mg/kg/injection, schedule: Q01DX009 (ip), vehicle: Klucel (hydroxypropylcellulose) (HPC)
[13] = dose: 200.0 mg/kg/injection, schedule: Q01DX009 (ip), vehicle: Klucel (hydroxypropylcellulose) (HPC)
[14] = dose: 100.0 mg/kg/injection, schedule: Q04DX003 (ip), vehicle: Klucel (hydroxypropylcellulose) (HPC)
[15] = dose: 200.0 mg/kg/injection, schedule: Q04DX003 (ip), vehicle: Klucel (hydroxypropylcellulose) (HPC)
[16] = dose: 400.0 mg/kg/injection, schedule: Q04DX003 (ip), vehicle: Klucel (hydroxypropylcellulose) (HPC)

O=C(CCCC(=O)NNC(=S)NC1CCCCC1)NNC(=S)NC1CCCCC1
T/C [1]: 96 % of control | T/C [2]: 96 % of control | T/C [3]: 93 % of control

COC(=O)CCS
T/C (dose: 10.0 mg/kg/injection, schedule: Q01DX001 (ip), vehicle: saline): 101 % of control | T/C (dose: 20.0 mg/kg/injection, schedule: Q01DX001 (ip), vehicle: saline): 101 % of control | T/C (dose: 40.0 mg/kg/injection, schedule: Q01DX001 (ip), vehicle: saline): 96 % of control

CC1(C)OCC(/C=C/C=N/Nc2ccc([N+](=O)[O-])cc2)O1 (stereo not drawn)
T/C [4]: 94 % of control | T/C [5]: 96 % of control | T/C [6]: 91 % of control

C=C(NC(C)=O)C(=O)OC
T/C (dose: 75.0 mg/kg/injection, schedule: Q04DX003 (ip), vehicle: saline): 102 % of control | T/C (dose: 150.0 mg/kg/injection, schedule: Q04DX003 (ip), vehicle: saline): 100 % of control | T/C (dose: 300.0 mg/kg/injection, schedule: Q04DX003 (ip), vehicle: saline): 97 % of control

Nc1ncnc2c1ncn2C1CCCCC1
T/C (dose: 17.5 mg/kg/injection, schedule: Q01DX Z (ip), vehicle: carboxymethylcellulose (CMC)): 89 % of control | T/C (dose: 34.0 mg/kg/injection, schedule: Q01DX Z (ip), vehicle: carboxymethylcellulose (CMC)): 98 % of control | T/C (dose: 34.0 mg/kg/injection, schedule: Q01DX Z (oral), vehicle: carboxymethylcellulose (CMC)): 97 % of control | T/C (dose: 68.0 mg/kg/injection, schedule: Q01DX Z (ip), vehicle: carboxymethylcellulose (CMC)): 102 % of control | T/C (dose: 68.0 mg/kg/injection, schedule: Q01DX Z (oral), vehicle: carboxymethylcellulose (CMC)): 100 % of control | T/C (dose: 136.0 mg/kg/injection, schedule: Q01DX Z (oral), vehicle: carboxymethylcellulose (CMC)): 102 % of control

COc1ccc(-c2cc(Cl)c([N+](=O)[O-])cc2[N+](=O)[O-])cc1
T/C (dose: 50.0 mg/kg/injection, schedule: Q01DX001 (ip), vehicle: carboxymethylcellulose (CMC)): 100 % of control | T/C (dose: 100.0 mg/kg/injection, schedule: Q01DX001 (ip), vehicle: carboxymethylcellulose (CMC)): 107 % of control | T/C (dose: 200.0 mg/kg/injection, schedule: Q01DX001 (ip), vehicle: carboxymethylcellulose (CMC)): 110 % of control | T/C (dose: 400.0 mg/kg/injection, schedule: Q01DX001 (ip), vehicle: carboxymethylcellulose (CMC)): 102 % of control

O=C1N(C[P+](c2ccccc2)(c2ccccc2)c2ccccc2)CCCN1C[P+](c1ccccc1)(c1ccccc1)c1ccccc1
T/C (dose: 1.56 mg/kg/injection, schedule: Q01DX009 (ip), vehicle: saline): 96 % of control | T/C (dose: 1.56 mg/kg/injection, schedule: Q04DX002 (ip), vehicle: saline): 150 % of control | T/C (dose: 3.12 mg/kg/injection, schedule: Q01DX005 (ip), vehicle: saline): 100 % of control | T/C (dose: 3.12 mg/kg/injection, schedule: Q01DX009 (ip), vehicle: saline): 93 % of control | T/C (dose: 3.12 mg/kg/injection, schedule: Q04DX002 (ip), vehicle: saline): 88 % of control | T/C (dose: 6.25 mg/kg/injection, schedule: Q01DX005 (ip), vehicle: saline): 94 % of control | T/C (dose: 6.25 mg/kg/injection, schedule: Q01DX009 (ip), vehicle: saline): 86 % of control | T/C (dose: 6.25 mg/kg/injection, schedule: Q04DX002 (ip), vehicle: saline): 95 % of control

COc1ccc(C)cc1NC(=S)NC(=O)c1cccc([N+](=O)[O-])c1
T/C [7]: 93 % of control | T/C [8]: 100 % of control and 89 % of control | T/C (dose: 100.0 mg/kg/injection, schedule: Q04DX002 (ip), vehicle: saline with Tween-80): 87 % of control | T/C [4]: 101 % of control | T/C [9]: 89 % of control | T/C [10]: 96 % of control and 97 % of control | T/C (dose: 200.0 mg/kg/injection, schedule: Q04DX002 (ip), vehicle: saline with Tween-80): 97 % of control | T/C [5]: 93 % of control | T/C [11]: 92 % of control and 101 % of control | T/C (dose: 400.0 mg/kg/injection, schedule: Q04DX002 (ip), vehicle: saline with Tween-80): 90 % of control | T/C [6]: 88 % of control

Cc1ccc(NC(=O)Nc2cccc(Cl)c2)c(C)c1
T/C [12]: 86 % of control | T/C [13]: 94 % of control | T/C (dose: 400.0 mg/kg/injection, schedule: Q01DX009 (ip), vehicle: Klucel (hydroxypropylcellulose) (HPC)): 87 % of control

NCCCC1C(CN)C2CC1C1C3CCC(C3)C21 (stereo not drawn)
T/C (dose: 3.12 mg/kg/injection, schedule: Q04DX003 (ip), vehicle: saline): 100 % of control | T/C (dose: 6.25 mg/kg/injection, schedule: Q04DX003 (ip), vehicle: saline): 100 % of control | T/C (dose: 12.5 mg/kg/injection, schedule: Q01DX009 (ip), vehicle: saline): 106 % of control | T/C (dose: 12.5 mg/kg/injection, schedule: Q04DX003 (ip), vehicle: saline): 97 % of control | T/C (dose: 25.0 mg/kg/injection, schedule: Q01DX009 (ip), vehicle: saline): 110 % of control | T/C (dose: 25.0 mg/kg/injection, schedule: Q04DX003 (ip), vehicle: saline): 97 % of control and 103 % of control | T/C (dose: 50.0 mg/kg/injection, schedule: Q01DX009 (ip), vehicle: saline): 106 % of control | T/C (dose: 50.0 mg/kg/injection, schedule: Q04DX003 (ip), vehicle: saline): 105 % of control | T/C (dose: 100.0 mg/kg/injection, schedule: Q04DX003 (ip), vehicle: saline): 98 % of control

Cc1ccc(S(=O)(=O)Nc2ccc(Cl)c(Cl)c2)cc1
T/C [14]: 97 % of control | T/C [15]: 96 % of control | T/C [16]: 94 % of control

CC(C)=CCC(=O)NCC(CCN1CCCCC1)(c1cccc2ccccc12)C(C)C (stereo not drawn)
T/C (dose: 12.5 mg/kg/injection, schedule: Q04DX003 (ip), vehicle: saline with Tween-80): 96 % of control | T/C (dose: 25.0 mg/kg/injection, schedule: Q04DX003 (ip), vehicle: saline with Tween-80): 88 % of control | T/C (dose: 50.0 mg/kg/injection, schedule: Q01DX003 (ip), vehicle: saline with Tween-80): 88 % of control | T/C (dose: 50.0 mg/kg/injection, schedule: Q04DX003 (ip), vehicle: saline with Tween-80): 92 % of control | T/C [12]: 90 % of control | T/C [13]: 90 % of control

CCOC(=O)CC(C)(C)C1CC1
T/C [1]: 91 % of control | T/C [2]: 96 % of control | T/C [3]: 96 % of control | T/C (dose: 400.0 mg/kg/injection, schedule: Q01DX001 (ip), vehicle: saline): 94 % of control

O=C(NNc1ccccc1)NC1OCC(O)C(O)C1O (stereo not drawn)
T/C (dose: 100.0 mg/kg/injection, schedule: Q01DX009 (ip), vehicle: saline): 92 % of control | T/C (dose: 100.0 mg/kg/injection, schedule: Q04DX003 (ip), vehicle: water): 97 % of control | T/C (dose: 200.0 mg/kg/injection, schedule: Q01DX009 (ip), vehicle: saline): 92 % of control | T/C (dose: 200.0 mg/kg/injection, schedule: Q04DX003 (ip), vehicle: water): 97 % of control | T/C (dose: 400.0 mg/kg/injection, schedule: Q01DX009 (ip), vehicle: saline): 93 % of control | T/C (dose: 400.0 mg/kg/injection, schedule: Q04DX003 (ip), vehicle: water): 97 % of control

C=C(C)c1c2c(Sc3ccc(C(C)(C)C)cc3)cccc2cc2cccc(Sc3ccc(C(C)(C)C)cc3)c12
T/C [4]: 98 % of control | T/C [5]: 93 % of control | T/C [6]: 91 % of control

CN(C)C(=S)Sc1ccc([N+](=O)[O-])cc1[N+](=O)[O-]
T/C [7]: 96 % of control | T/C [12]: 91 % of control | T/C [9]: 100 % of control | T/C [13]: 93 % of control | T/C (dose: 400.0 mg/kg/injection, schedule: Q01DX001 (ip), vehicle: saline with Tween-80): 100 % of control | T/C [16]: 86 % of control

CCOC(=O)c1ccc(C(C)=O)o1
T/C [14]: 100 % of control | T/C [15]: 106 % of control | T/C [16]: 94 % of control

OC(c1ccc(Cl)cc1)(c1ccc(Cl)cc1)C(F)(Cl)Cl
T/C (dose: 26.6 mg/kg/injection, schedule: Q01DX Z (ip), vehicle: methylcellulose (MC)): 87 % of control | T/C (dose: 40.0 mg/kg/injection, schedule: Q01DX Z (ip), vehicle: methylcellulose (MC)): 107 % of control | T/C (dose: 60.0 mg/kg/injection, schedule: Q01DX Z (ip), vehicle: methylcellulose (MC)): 96 % of control

OCc1ccccc1
T/C [8]: 105 % of control | T/C [14]: 100 % of control | T/C [10]: 102 % of control | T/C [15]: 101 % of control | T/C [11]: 96 % of control | T/C [16]: 98 % of control
